# According to patent US7736638B2, “Interleukin-15 antagonist peptide” (Centro de Ingenieria Genetica y Biotecnologia, priority 2004, dated 2010):
# “Also recorded” adds a separate entry of the source. Ends that are not written are not given here.
# What was measured:
# IL-15Rα-Fc = IL-15Rα-Fc (Homo sapiens, UniProt Q13261); test: IL-15 peptide spot mapping on cellulose filter, binding of IL-15Rα-Fc; details: 10-mer peptides on cellulose membrane; IL-15 α-Receptor at 5 μg/mL; blue/violet color = positive; listed as 8
# IL-15Rα-Fc, sequence (Q13261 with tags, fused parts or gaps limits assumed): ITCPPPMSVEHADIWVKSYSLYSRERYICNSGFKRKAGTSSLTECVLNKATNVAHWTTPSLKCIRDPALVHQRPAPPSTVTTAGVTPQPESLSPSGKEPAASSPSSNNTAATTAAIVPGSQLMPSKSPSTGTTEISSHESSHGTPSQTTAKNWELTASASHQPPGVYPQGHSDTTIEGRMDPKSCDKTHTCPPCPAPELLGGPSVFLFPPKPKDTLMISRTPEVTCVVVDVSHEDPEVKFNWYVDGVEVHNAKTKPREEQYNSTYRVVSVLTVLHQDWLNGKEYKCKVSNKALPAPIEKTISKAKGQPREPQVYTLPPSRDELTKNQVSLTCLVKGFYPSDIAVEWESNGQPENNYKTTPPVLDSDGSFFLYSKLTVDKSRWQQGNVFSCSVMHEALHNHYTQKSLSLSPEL
# Protocol: To identify IL-15 regions involved in IL-15Rα binding, the peptide spot synthesis approach was used as previously described Frank et. al. The derivation of Whatman 540 paper was carried out estherifying the first anchor component, Fmoc-β-Ala-OH, using N,N′-Diisopropylcarbodiimide (DIC) and N-methylimidazole (NMI) in dry N,N-dimethylformamide (DMF). The spot array on the cellulose membrane was defined anchoring the Fmoc-β-Ala-OH on the previously marked positions, according to the required number of 10-mer peptides (22 peptides, overlapping in 5 residues, 114 amino acids of IL-15 sequence). Besides, a non-related 10 amino acids peptide was synthesized on spot 23 and also on spot 24 only Fmoc-β-Ala-OH was anchoring, both as controls. For the assembly of all these molecules, the standard Fmoc-/tBu chemistry was used. After the final cycle of synthesis, the N-terminus and side chains of all peptides were de-protected.
# Cellulose sheet was soaked in ethanol to prevent possible hydrophobic interactions between the peptides on it. Ethanol was exchanged against Tris-buffer saline (TBS) (150 mM NaCl, 10 mM Tris, pH 7.6) by sequential washing. Nonspecific binding was blocked by incubating membrane overnight in 10 mL of TBS blocking buffer (5% Powdered milk in TBS). […]
# [1] = biological target: T1, IL-15Rα-Fc fusion protein (R&D 147-IR) (Homo sapiens, UniProt Q13261); test: Colorimetric assay in Tentagel S beads, peptide binding to IL-15Rα; details: resin-bound peptide, IL-15Rα-Fc at 5 μg/mL
# T1 construct: purchased R&D 147-IR
# T1 sequence (Q13261 with tags, fused parts or gaps limits assumed): as above
# Protocol: The resin NH2-Tentagel-S (0.24 mmol/g) was washed several times with di-chlorometane (DCM) and methanol. Then, it was incubated in a trifluoroacetic acid (TFA) solution 30% for 10 minutes; washed several times with DCM and incubated in di-isopropilethilamine (DIEA) 5% in DCM for 1 minute. This procedure activated the NH2 groups for synthesis. Later, it was washed with DCM and incubated in di-methylformamide (DMF) for 5 minutes to synthesize the peptide. The conventional Fmoc/tBu strategy of synthesis was used. Coupling reactions were followed by ninhidrine test. Once peptide Sec. No.1 sequence was completed, amino acids side chains were de-protected, leaving it anchored by its C-terminal to the resin.
# Resin beads with anchored peptide were several times washed with saline solution (PBS). Non specific interactions were blocked with BSA (1%) in PBS for 1 hour at RT. Then, they were incubated with IL-15Rα-Fc fusion protein (R&D 147-IR) at 5 μg/mL in BSA (1%/PBS) for 16 hours at 4° C. Later, beads were washed in PBS three fold for 5 minutes with shaking and then incubated with anti-Fc IgG human-phosphatase conjugate diluted 1:25000 in BSA (1%/PBS) for three hours at RT. They were extensively washed with a saline solution (TBS/Tween-20, 1%) and incubated with BCIP (0.45 mg/mL) in substrate solution (100 mM Tris, pH 8.9; 100 mM NaCl; 2 mM MgCl2) for approximately 30 minutes. […]
# [2] = test system: TNFα-induced apoptosis in L929 cells; test: Apoptosis induction assay in L929 cells (DNA fragmentation assay); type: cell-based; details: TNFα 100 ng/mL, peptide 260 μM, 24 h
# Protocol: The DNA Fragmentation Assay allows to determine the amount of DNA that is degraded upon treatment of cells with TNF-alpha. The cells' DNA is radioactively labeled by growing the cells in presence of 3H-Thymidine so that radioactive 3H-Thymidine is incorporated into the DNA. After 24 h the cells were treated with Tripsin/EDTA, washed and seeded at 5000 cells per well in a 96 well plate. Then, the labeled cells were incubated with TNFα (100 ng/mL), IL-15 (100 ng/mL), peptides (260 μM) or combinations of TNFα with different peptides.
# During this incubation the added agent (e.g. TNFα induces cells to die by apoptosis and consequently the fragmentation of DNA while the DNA of untreated cells remains intact). After 24 h the cells were harvested: during harvesting, the cells were washed out of the wells of the 96 well plate with bidestilated water: the cells and organelles burst and the cell's DNA is set free. The cell fragments and DNA are passed through a filter membrane (glassfiber). Only particles of smaller than 1,5 μm can pass the filter. […] The filter membrane was dried and the amount of radioactivity (what corresponds to the amount of intact DNA) counted in a scintillation counter. The percentage of DNA fragmentation was calculated by comparing the counted radioactivity (counts per minute=cpm) of cells that were not treated with the cpm in cells that were treated with agent.
# [3] = test system: IL-15-induced proliferation of CTLL-2 cells; test: CTLL-2 proliferation assay with human IL-15 (MTT staining); type: cell-based; details: fixed peptide concentration 260 μM
# Protocol: The cytokine-dependent cell line CTLL-2 proliferates in presence of IL-15. IL-15 bound molecules impairing receptor depending signal transduction would inhibit this cell line proliferation. To evaluate the neutralizing capacity the peptide of the present invention, serial dilutions of them were done in 96 well plates (Costar, USA) in 25 μL volume of RPMI medium (Gibco) supplemented with 10% fetal bovine serum (Gibco). Previously washed CTLL-2 cells were added to 5×10^3 cells/well and it was incubated for 30 min. Then, 300 pg of IL-15 were added to each well. Plate was incubated for 72 h at 5% CO2 and 37° C. […] We also evaluated the antagonist effect of 260 μM of this peptide at different IL-15 concentrations (FIG. 3a).
substance,measurement,setting,value
KVTAMKCFLL-NH2 [SEQ ID NO: 1],recognition of the peptide spot by IL-15Rα-Fc,IL-15Rα-Fc,recognizes; also recorded: recognition
same,color development in beads incubated with IL-15Rα-Fc,[1],intense blue color
same,color development in beads incubated with IL-15Rα-Fc in presence of an excess of human IL-15,[1]; excess of IL-15 (competition),did not observed color
same,protection from TNFα-induced apoptosis (DNA fragmentation),[2],protected form TNF induced apoptosis
same,antagonist effect of the peptide at different IL-15 concentrations,[3],dependent on IL-15 doses
